Assay results published in patent publication US20050020559A1, “Chlorin photosensitizing agents for use in photodynamic therapy” (priority 2001, published 2005).

What was measured:
corneal neovessels = experiment: Experimentally induced corneal neovascularization (N-heptanol scrub): PDT closure of corneal neovessels, fluorescein angiography out to 28 days; type: in vivo, Sprague Dawley rats; conditions: corneal neovessels induced by n-heptanol scrub, rats; light dose 20 J/cm^2 at optimal excitation wavelength; optimal drug dose and time interval per compound; grade by corneal fluorescein angiography (neovessel-free area)
Method: The chlorin e6molecules were evaluated in a series of preclinical ocular neovessel models, corneal neovascularization, normal choriocapillaris vessels, and choroidal neovascularization. […] The chemical scrub was used to remove the corneal epithelium and stem cells, allowing the neovessels to grow across the entire cornea. PDT was performed at approximately 3 weeks after the chemical scrub when the neovessels formed a uniform network across the cornea. The PDT treatment was applied to the corneal surface with a laser wavelength that was optimized for the given absorption spectrum. The laser energy was coupled through a slit lamp biomicroscope with a slit lamp adapter. A 3.0 mm spot size was used (Area=7.07 mm^2). The light dose delivered was varied from 5-25 J/cm^2. The efficacy of neovessel closure was evaluated by measuring the area of treated cornea that remained neovessel-free out to 28 days following PDT. Accurate area measurements were taken using fluorescein angiography and measuring the area of neovessel-free cornea.

choriocapillaris = experiment: Normal choriocapillaris rabbit model: PDT vessel closure out to 28 days, fluorescein angiography; type: in vivo; conditions: pigmented rabbit, intravenous, light dose 20 J/cm^2, optimal drug dose and time interval per compound, grade by fluorescein angiography
Method: The chlorin e6molecules were evaluated in a series of preclinical ocular neovessel models, corneal neovascularization, normal choriocapillaris vessels, and choroidal neovascularization.
Selected chlorin e6 molecules were also evaluated in a normal choriocapillaris model in the pigmented rabbit. […] The selected photosensitizers were administered intravenously at varying drug doses, the light dose was set constant at 20 J/cm^2, and the time interval was varied from 5-30 minutes between drug and light administration. Two PDT treatment areas were placed on the fundus of each eye in each rabbit. Fluorescein angiography was used to evaluate vessel closure following PDT out to 28 days.

[1] = test system: choroidal neovascularization lesions; experiment: Laser-induced choroidal neovascularization (CNV) model: PDT closure of CNV lesions, fluorescein angiography and histopathology; type: in vivo, rats
Method: Two of the chlorin e6molecules, (39) and (106), were evaluated in a laser-induced choroidal neovascularization (CNV) model in rats. Laser photocoagulation was used to stimulate choroidal neovessel growth on the fundus of the rat (E. T. Dobi, C. Puliafito, M. A. Destro, “A new model of experimental choroidal neovascularization in the rat”, Arch. Ophthalmol. 1989; 107: 264-269). The PDT treatments were performed approximately 4 weeks after the laser photocoagulation, which was when the choroidal neovascularization lesions were fully developed. The lesions were PDT treated using a 1.2 mm spot which covered the entire CNV lesion. Fluorescein angiography and histopathology were used to evaluate the CNV closure.

Row | Structure (SMILES) | Extent of neovessel closure at 28 days after treatment (corneal neovessels) | Closure at 28 Days (choriocapillaris) | CNV closure (fluorescein angiography) ([1]; 0.8 & 1.6 μmoles/kg, 10-20 minutes time interval post injection, 7 days after PDT) | CNV closure (fluorescein angiography) ([1]; 0.75 μmoles/kg, 20 minutes time interval post injection, 7 days post PDT)
1 | C=Cc1c(C)c2cc3nc(c(CC(=O)OC)c4[nH]c(cc5nc(cc1[nH]2)C(C)=C5CC)c(C)c4C(=O)NCCCO)C(CCC(=O)OC)C3C (centres unmarked) [Compound 30, 3-[[(3-hydroxypropyl)amino]carbonyl]-13-ethenyl-18-ethyl-7,8-dihydro-5-(2-methoxy-2-oxoethyl)-2,8,12,17-tetramethyl-21H, 23H-Porphine-7-propionic acid, methyl ester] | 2 (2 = 1.1-2.0 mm^2) | 3 (3 = 51-75%) | – | –
2 | C=Cc1c(C)c2cc3nc(c(CC(=O)OC)c4[nH]c(cc5nc(cc1[nH]2)C(C)=C5CC)c(C)c4C(=O)NCCCOC(C)=O)C(CCC(=O)OC)C3C (centres unmarked) [Compound 34, 3-[[(3-acetoxypropyl)amino]carbonyl]-13-ethenyl-18-ethyl-7,8-dihydro-5-(2-methoxy-2-oxoethyl)-2,8,12,17-tetramethyl-21H, 23H-Porphine-7-propionic acid, methyl ester] | 1 (1 = 0.21-1.0 mm^2) | 3 (3 = 51-75%) | – | –
3 | C=Cc1c(C)c2cc3nc(c(CC(=O)OC)c4[nH]c(cc5nc(cc1[nH]2)C(C)=C5CC)c(C)c4C(=O)NCCOCCO)C(CCC(=O)OC)C3C (centres unmarked) [Compound 39, 3-[[(5-hydroxy-3-oxa-pentyl)amino]carbonyl]-13-ethenyl-18-ethyl-7,8-dihydro-5-(2-methoxy-2-oxoethyl)-2,8,12,17-tetramethyl-21H, 23H-Porphine-7-propionic acid, methyl ester] | 1 (1 = 0.21-1.0 mm^2) | 4 (4 > 75%) | closed the CNV lesion | –
4 | C=Cc1c(C)c2cc3nc(c(CCO)c4[nH]c(cc5nc(cc1[nH]2)C(C)=C5CC)c(C)c4C(=O)NCCOCCO)C(CCCO)C3C (centres unmarked) [Compound 43, 7-(3-hydroxypropyl)-3-[[(5-hydroxy-3-oxa-pentyl)amino]carbonyl]-13-ethenyl-18-ethyl-7,8-dihydro-5-(2-hydroxyethyl)-2,8,12,17-tetramethyl-21H, 23H-Porphine] | 1 (1 = 0.21-1.0 mm^2) | – | – | –
5 | C=Cc1c(C)c2cc3nc(c(CC(=O)OC)c4[nH]c(cc5nc(cc1[nH]2)C(C)=C5CC)c(C)c4C(=O)NCCOCCOC(C)=O)C(CCC(=O)OC)C3C (centres unmarked) [Compound 45, 3-[[(5-acetoxy-3-oxa-pentyl)amino]carbonyl]-13-ethenyl-18-ethyl-7,8-dihydro-5-(2-methoxy-2-oxoethyl)-2,8,12,17-tetramethyl-21H, 23H-Porphine-7-propionic acid, methyl ester] | 1 (1 = 0.21-1.0 mm^2) | 3 (3 = 51-75%) | – | –
6 | CCC1=C(C)c2cc3[nH]c(cc4nc(c(CC(=O)OC)c5[nH]c(cc1n2)c(C)c5C(=O)NCCCO)C(CCC(=O)OC)C4C)c(C)c3C(C)=O (centres unmarked) [Compound 101, 3-[[(3-hydroxypropyl]amino]carbonyl]-13-acetyl-18-ethyl-7,8-dihydro-5-(2-methoxy-2-oxoethyl)-2,8,12,17-tetramethyl-21H, 23H-Porphine-7-propionic acid, methyl ester] | 0 (0 = 0-0.2 mm^2) | – | – | –
7 | CCC1=C(C)c2cc3[nH]c(cc4nc(c(CC(=O)OC)c5[nH]c(cc1n2)c(C)c5C(=O)NCCOCCO)C(CCC(=O)OC)C4C)c(C)c3C(C)=O (centres unmarked) [Compound 106, 3-[[(5-hydroxy-3-oxa-pentyl)amino]carbonyl]-13-acetyl-18-ethyl-7,8-dihydro-5-(2-methoxy-2-oxoethyl)-2,8,12,17-tetramethyl-21H, 23H-Porphine-7-propionic acid, methyl ester] | 1 (1 = 0.21-1.0 mm^2) | 4 (4 > 75%) | – | demonstrated CNV closure
